# Laboratory results from US20060093617A1, “Peptides for inducing a CTL and/or HTL response to hepatitis C virus” (Innogenetics, N.V., priority 2004, published 2006).
# Where a SMILES comes first, the peptide text is derived from it.
# Target: T1, HLA-Cw06 (Homo sapiens, UniProt P10321, A176E/A330V/C350S/L171W/L180W/L218V/M285V/M309V/M331V/N104K/P208H/Q277E/Q291P/R121W/R243W/S101N/S123Y/S297R/T329A/T363A/V319A/V328M)
# T1 construct: endogenous in cells
# Experiment: HLA class I competition cell-based binding assay
row,SMILES,Ki [nM]
1,CC[C@H](C)[C@H](NC(=O)[C@@H](NC(=O)[C@@H](N)CCC(=O)O)C(C)C)C(=O)N[C@@H](CCCCN)C(=O)NCC(=O)NCC(=O)N[C@@H](CCCNC(=N)N)C(=O)N[C@@H](Cc1c[nH]cn1)C(=O)N[C@@H](CC(C)C)C(=O)O,12800
2,CC[C@H](C)[C@H](NC(=O)CNC(=O)[C@H](CCCNC(=N)N)NC(=O)[C@H](CCCNC(=N)N)NC(=O)CN)C(=O)N[C@@H](Cc1ccc(O)cc1)C(=O)N[C@@H](CCCNC(=N)N)C(=O)N[C@@H](Cc1ccccc1)C(=O)N[C@H](C(=O)O)C(C)C,576
3,CC(C)C[C@H](NC(=O)CNC(=O)[C@H](CCCNC(=N)N)NC(=O)[C@H](Cc1ccc(O)cc1)NC(=O)[C@H](Cc1ccc(O)cc1)NC(=O)[C@H](C)NC(=O)[C@@H](NC(=O)[C@H](C)NC(=O)[C@@H](N)CC(N)=O)C(C)C)C(=O)O,10800
4,CC[C@H](C)[C@H](NC(=O)[C@H](CC(C)C)NC(=O)[C@H](Cc1c[nH]cn1)NC(=O)[C@H](CCCNC(=N)N)NC(=O)CNC(=O)CNC(=O)[C@H](CCCCN)NC(=O)[C@@H](NC(=O)[C@@H](N)C(C)C)[C@@H](C)CC)C(=O)N[C@@H](Cc1ccccc1)C(=O)O,17500
5,CC(C)C[C@H](NC(=O)[C@@H](NC(=O)[C@H](CCC(N)=O)NC(=O)[C@H](CC(C)C)NC(=O)[C@H](CCCNC(=N)N)NC(=O)[C@H](CC(=O)O)NC(=O)[C@H](Cc1ccccc1)NC(=O)[C@@H](NC(=O)[C@@H](N)C(C)C)[C@@H](C)O)C(C)C)C(=O)O,1130
6,CC(C)C[C@H](NC(=O)[C@H](CCCNC(=N)N)NC(=O)[C@@H](N)Cc1ccc(O)cc1)C(=O)NCC(=O)N[C@@H](C)C(=O)N[C@H](C(=O)N[C@@H](CCC(N)=O)C(=O)N[C@@H](CC(N)=O)C(=O)N[C@@H](CCC(=O)O)C(=O)N[C@H](C(=O)O)C(C)C)C(C)C,217
7,CC(C)[C@H](NC(=O)CNC(=O)[C@H](CO)NC(=O)[C@H](C)NC(=O)[C@H](CCCNC(=N)N)NC(=O)[C@H](CS)NC(=O)[C@H](CCCNC(=N)N)NC(=O)[C@H](CCCNC(=N)N)NC(=O)[C@@H](N)Cc1ccc(O)cc1)C(=O)O,634
8,CC(C)C[C@H](NC(=O)[C@@H](NC(=O)[C@H](CCCCN)NC(=O)[C@H](Cc1ccc(O)cc1)NC(=O)CNC(=O)[C@H](CCC(N)=O)NC(=O)[C@H](C)NC(=O)[C@H](C)N)C(C)C)C(=O)N[C@H](C(=O)O)C(C)C (H-AAQGYKVLV-OH; N-terminus and C-terminus assumed),6320
9,CC(C)C[C@H](NC(=O)[C@H](C)NC(=O)[C@H](CCCNC(=N)N)NC(=O)[C@H](C)N)C(=O)N[C@@H](C)C(=O)N[C@@H](Cc1c[nH]cn1)C(=O)NCC(=O)N[C@H](C(=O)N[C@@H](CCCNC(=N)N)C(=O)N[C@H](C(=O)O)C(C)C)C(C)C (H-ARALAHGVRV-OH; N-terminus and C-terminus assumed),9880
10,CC(C)[C@H](NC(=O)[C@H](CCCNC(=N)N)NC(=O)[C@H](CCC(N)=O)NC(=O)CNC(=O)[C@@H]1CCCN1C(=O)[C@H](CO)NC(=O)[C@H](Cc1ccc(O)cc1)NC(=O)[C@H](CCC(N)=O)NC(=O)[C@@H](N)Cc1ccccc1)C(=O)O (H-FQYSPGQRV-OH),387
11,CC(C)[C@H](NC(=O)CNC(=O)[C@H](CCCNC(=N)N)NC(=O)[C@@H](NC(=O)[C@H](CS)NC(=O)[C@@H](NC(=O)[C@H](C)NC(=O)[C@H](C)NC(=O)[C@H](CCCNC(=N)N)NC(=O)[C@@H](N)Cc1ccccc1)C(C)C)[C@@H](C)O)C(=O)O (H-FRAAVCTRGV-OH; N-terminus and C-terminus assumed),486
12,CC[C@H](C)[C@H](NC(=O)[C@H](CC(C)C)NC(=O)[C@H](CCCNC(=N)N)NC(=O)[C@H](C)NC(=O)[C@@H]1CCCN1C(=O)[C@H](CCCCN)NC(=O)[C@H](CCCNC(=N)N)NC(=O)CN)C(=O)N[C@H](C(=O)O)C(C)C (H-GRKPARLIV-OH; N-terminus and C-terminus assumed),2040
13,CC[C@H](C)[C@H](N)C(=O)N[C@@H](CCCNC(=N)N)C(=O)N[C@@H](CO)C(=O)N[C@@H](CC(C)C)C(=O)N[C@H](C(=O)N[C@@H](CCC(=O)O)C(=O)N[C@@H](CCCNC(=N)N)C(=O)N[C@@H](CC(C)C)C(=O)N[C@@H](Cc1ccc(O)cc1)C(=O)N[C@H](C(=O)O)[C@@H](C)CC)[C@@H](C)O (H-IRSLTERLYI-OH; N-terminus and C-terminus assumed),6220
14,CC[C@H](C)[C@H](NC(=O)[C@H](CC(C)C)NC(=O)[C@H](CCCNC(=N)N)NC(=O)[C@H](C)NC(=O)[C@@H]1CCCN1C(=O)[C@H](CCCCN)NC(=O)[C@@H](N)CCCNC(=N)N)C(=O)N[C@H](C(=O)N[C@@H](Cc1ccccc1)C(=O)O)C(C)C (H-RKPARLIVF-OH; N-terminus and C-terminus assumed),8280
15,CC[C@H](C)[C@H](NC(=O)[C@H](CCC(N)=O)NC(=O)CNC(=O)CNC(=O)CNC(=O)[C@@H]1CCCN1C(=O)[C@H](Cc1ccccc1)NC(=O)[C@H](CCCCN)NC(=O)[C@@H](N)C(C)C)C(=O)N[C@H](C(=O)O)C(C)C (H-VKFPGGGQIV-OH; N-terminus and C-terminus assumed),417
16,CC(C)C[C@H](NC(=O)[C@@H](NC(=O)[C@H](CCCCN)NC(=O)[C@H](Cc1ccc(O)cc1)NC(=O)CNC(=O)[C@H](CCC(N)=O)NC(=O)[C@H](C)NC(=O)[C@H](C)NC(=O)[C@@H](N)Cc1ccc(O)cc1)C(C)C)C(=O)N[C@H](C(=O)O)C(C)C (H-YAAQGYKVLV-OH; N-terminus and C-terminus assumed),9210

# Target: T2, DRB1*0101 (Homo sapiens, UniProt P01903+P01911, A100R/D57E/F55L/F60I/F76Y/I96L/L162R/M171V/P40L/Q125E/R42F/V115G/Y59C)
# T2 construct: endogenous in cells; host or cells: cell lysate
# Experiment: Competition binding assay using soluble HLA class II
row,SMILES,IC50 [nM]
1,CC(C)C[C@H](NC(=O)[C@H](CCCCN)NC(=O)[C@H](CCCNC(=N)N)NC(=O)[C@H](CC(C)C)NC(=O)[C@H](CS)NC(=O)[C@H](CO)NC(=O)[C@H](C)N)C(=O)NCC(=O)N[C@H](C(=O)N1CCC[C@H]1C(=O)N1CCC[C@H]1C(=O)N[C@@H](CC(C)C)C(=O)N[C@@H](CCCNC(=N)N)C(=O)N[C@H](C(=O)N[C@@H](Cc1c[nH]c2ccccc12)C(=O)O)C(C)C)C(C)C,4.9
2,CC[C@H](C)[C@H](NC(=O)[C@H](CC(C)C)NC(=O)[C@H](CC(=O)O)NC(=O)[C@H](C)NC(=O)[C@@H](N)CC(=O)O)C(=O)N[C@@H](CCC(=O)O)C(=O)N[C@@H](C)C(=O)N[C@@H](CC(N)=O)C(=O)N[C@@H](CC(C)C)C(=O)N[C@@H](CC(C)C)C(=O)N[C@@H](Cc1c[nH]c2ccccc12)C(=O)N[C@@H](CCCNC(=N)N)C(=O)N[C@@H](CCC(N)=O)C(=O)N[C@@H](CCC(=O)O)C(=O)N[C@@H](CCSC)C(=O)O,574
3,CSCC[C@H](NC(=O)[C@H](CC(C)C)NC(=O)[C@H](C)NC(=O)[C@H](CC(=O)O)NC(=O)[C@@H](NC(=O)[C@H](C)NC(=O)[C@@H](NC(=O)[C@@H](NC(=O)[C@@H](NC(=O)[C@@H](NC(=O)[C@@H](N)CC(=O)O)C(C)C)C(C)C)C(C)C)C(C)C)[C@@H](C)O)C(=O)N[C@H](C(=O)NCC(=O)N[C@@H](Cc1ccc(O)cc1)C(=O)N[C@H](C(=O)O)[C@@H](C)O)[C@@H](C)O,456
4,CC(C)[C@H](NC(=O)[C@H](CCCNC(=N)N)NC(=O)[C@H](CCC(N)=O)NC(=O)CNC(=O)[C@@H]1CCCN1C(=O)[C@H](CO)NC(=O)[C@H](Cc1ccc(O)cc1)NC(=O)[C@H](CCC(N)=O)NC(=O)[C@H](Cc1ccccc1)NC(=O)CNC(=O)[C@H](Cc1ccc(O)cc1)NC(=O)[C@H](CO)NC(=O)[C@H](CO)NC(=O)CN)C(=O)N[C@@H](CCC(=O)O)C(=O)O,11
5,CC(C)C[C@H](NC(=O)[C@H](CC(N)=O)NC(=O)CNC(=O)[C@@H](NC(=O)[C@H](C)NC(=O)[C@H](Cc1ccc(O)cc1)NC(=O)[C@H](CC(N)=O)NC(=O)[C@@H](NC(=O)CN)C(C)C)[C@@H](C)O)C(=O)N1CCC[C@H]1C(=O)NCC(=O)N[C@@H](CS)C(=O)N[C@@H](CO)C(=O)N[C@@H](Cc1ccccc1)C(=O)N[C@@H](CO)C(=O)O,4560
6,CC(C)C[C@H](NC(=O)[C@@H](NC(=O)[C@H](C)NC(=O)[C@H](C)NC(=O)[C@@H](NC(=O)[C@H](CO)NC(=O)[C@@H]1CCCN1C(=O)[C@H](CC(N)=O)NC(=O)[C@H](CC(C)C)NC(=O)[C@@H](NC(=O)[C@H](CC(C)C)NC(=O)[C@@H](NC(=O)[C@H](CCCCN)NC(=O)[C@H](Cc1ccc(O)cc1)NC(=O)CN)C(C)C)C(C)C)C(C)C)[C@@H](C)O)C(=O)O,8.4
7,CC(C)C[C@H](NC(=O)[C@H](C)NC(=O)CNC(=O)[C@H](C)NC(=O)[C@@H](NC(=O)CNC(=O)[C@H](C)NC(=O)CNC(=O)[C@H](Cc1ccc(O)cc1)NC(=O)CNC(=O)[C@H](C)NC(=O)[C@@H](N)CC(C)C)C(C)C)C(=O)N[C@H](C(=O)N[C@@H](C)C(=O)N[C@@H](Cc1ccccc1)C(=O)O)C(C)C,137
8,CC(C)C[C@H](NC(=O)[C@H](Cc1c[nH]cn1)NC(=O)[C@H](C)NC(=O)[C@@H](NC(=O)[C@H](CCC(N)=O)NC(=O)[C@H](Cc1ccccc1)NC(=O)[C@@H](NC(=O)[C@H](CCC(N)=O)NC(=O)[C@@H]1CCCN1)[C@@H](C)O)C(C)C)C(=O)N[C@@H](Cc1c[nH]cn1)C(=O)N[C@@H](C)C(=O)N1CCC[C@H]1C(=O)N[C@H](C(=O)NCC(=O)N[C@@H](CO)C(=O)O)[C@@H](C)O,22
9,CC(C)[C@H](NC(=O)CNC(=O)[C@H](CCCNC(=N)N)NC(=O)[C@@H](NC(=O)[C@H](CS)NC(=O)[C@@H](NC(=O)[C@H](C)NC(=O)[C@H](C)NC(=O)[C@@H](N)CCCNC(=N)N)C(C)C)[C@@H](C)O)C(=O)N[C@@H](C)C(=O)N[C@@H](CCCCN)C(=O)N[C@@H](C)C(=O)N[C@H](C(=O)N[C@@H](CC(=O)O)C(=O)N[C@@H](Cc1ccccc1)C(=O)O)C(C)C,619
10,CC[C@H](C)[C@H](NC(=O)[C@@H]1CCCN1C(=O)[C@H](C)NC(=O)[C@H](CC(C)C)NC(=O)[C@H](CC(C)C)NC(=O)[C@H](CCCNC(=N)N)NC(=O)[C@H](Cc1c[nH]c2ccccc12)NC(=O)CNC(=O)[C@H](CCCCN)NC(=O)[C@@H](N)CO)C(=O)N[C@H](C(=O)N[C@@H](C)C(=O)N[C@@H](Cc1ccc(O)cc1)C(=O)N[C@@H](C)C(=O)N[C@@H](CCC(N)=O)C(=O)O)[C@@H](C)O,0.4
